Experimental data taken from patent US8415469B2, “Compounds and methods for kinase modulation, and indications therefor” (Plexxikon Inc., priority 2005, dated 2013).

Legend:
Format in all cases: biochemical
FGFR1 = target: T1, FGFR1 (Homo sapiens, UniProt P11362, C488A/C584S); assay: AlphaScreen kinase assay, FGFR1; conditions: read-out: IC50, activity toward kinase FGFR
T1 construct: P1351.pET N6 BI-PTP FGFR A458-E765-X C488A, C584S; made in house; host or cells: E. coli (PTP1B co-expressed)

Kit = target: T2, Kit (Homo sapiens, UniProt P10721); assay: AlphaScreen kinase assay, Kit; conditions: read-out: IC50, activity toward kinase Kit
T2 construct: P1332.N6 BI PTP KIT M552-K948-X COD; His6 (N); made in house; host or cells: E. coli (PTP1B co-expressed)
T2 sequence (P10721 with tags, fused parts or gaps): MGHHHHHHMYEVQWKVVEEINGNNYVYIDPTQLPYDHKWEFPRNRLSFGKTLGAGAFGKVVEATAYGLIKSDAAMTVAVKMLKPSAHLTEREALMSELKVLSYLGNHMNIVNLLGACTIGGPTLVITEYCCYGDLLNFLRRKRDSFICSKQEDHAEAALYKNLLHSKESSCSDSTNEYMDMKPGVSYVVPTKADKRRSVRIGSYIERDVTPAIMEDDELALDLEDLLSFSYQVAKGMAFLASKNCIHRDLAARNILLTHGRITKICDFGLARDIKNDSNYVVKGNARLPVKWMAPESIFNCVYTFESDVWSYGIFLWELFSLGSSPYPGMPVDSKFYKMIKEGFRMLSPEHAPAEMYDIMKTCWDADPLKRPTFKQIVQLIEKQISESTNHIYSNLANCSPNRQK

Btk = target: T3, Btk (Homo sapiens, UniProt Q06187); assay: Z'-Lyte FRET kinase assay (Invitrogen), Btk; conditions: read-out: IC50, activity toward kinase Btk
T3 construct: purchased Invitrogen (assay run by Invitrogen)
T3 sequence (Q06187 whole entry): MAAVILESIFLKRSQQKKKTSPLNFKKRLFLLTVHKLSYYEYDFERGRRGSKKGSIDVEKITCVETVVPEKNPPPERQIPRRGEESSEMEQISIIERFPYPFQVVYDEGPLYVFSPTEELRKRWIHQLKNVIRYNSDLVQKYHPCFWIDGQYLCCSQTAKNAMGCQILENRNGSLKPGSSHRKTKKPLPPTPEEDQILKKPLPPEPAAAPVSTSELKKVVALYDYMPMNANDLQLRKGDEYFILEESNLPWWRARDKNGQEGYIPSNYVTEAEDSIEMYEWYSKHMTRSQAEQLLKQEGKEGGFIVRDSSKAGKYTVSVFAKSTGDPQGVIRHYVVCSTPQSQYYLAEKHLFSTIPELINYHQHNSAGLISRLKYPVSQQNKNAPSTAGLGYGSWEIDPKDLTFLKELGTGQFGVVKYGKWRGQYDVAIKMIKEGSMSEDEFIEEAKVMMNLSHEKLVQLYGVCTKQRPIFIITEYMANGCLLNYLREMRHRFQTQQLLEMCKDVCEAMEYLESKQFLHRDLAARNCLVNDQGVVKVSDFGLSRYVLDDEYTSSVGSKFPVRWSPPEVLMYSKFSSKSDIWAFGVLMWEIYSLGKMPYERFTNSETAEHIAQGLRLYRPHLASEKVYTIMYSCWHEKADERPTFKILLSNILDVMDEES

Fak = target: T4, Fak (Homo sapiens, UniProt Q05397); assay: AlphaScreen kinase assay, Fak; conditions: read-out: IC50, activity toward kinase Fak
T4 construct: P1358.pFastBacHtb FAK S411-Q686-X; His6 with pFastBacHTb leader (TEV site) (N); made in house; host or cells: Sf9 (baculovirus)
T4 sequence (Q05397 411-686): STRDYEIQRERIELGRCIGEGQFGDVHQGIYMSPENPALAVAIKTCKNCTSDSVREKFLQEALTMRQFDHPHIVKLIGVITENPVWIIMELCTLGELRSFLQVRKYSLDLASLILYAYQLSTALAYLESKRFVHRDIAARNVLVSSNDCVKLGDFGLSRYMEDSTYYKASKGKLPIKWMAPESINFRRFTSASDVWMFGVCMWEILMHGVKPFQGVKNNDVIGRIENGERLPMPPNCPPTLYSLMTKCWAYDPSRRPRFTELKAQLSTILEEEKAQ

Stk6 = target: T5, Stk6 (Homo sapiens, UniProt O14965); assay: Z'-Lyte FRET kinase assay (Invitrogen), Stk6; conditions: read-out: IC50, activity toward kinase Stk6
T5 construct: purchased Invitrogen (Carlsbad, Calif.), screening service
T5 sequence (O14965 1-403): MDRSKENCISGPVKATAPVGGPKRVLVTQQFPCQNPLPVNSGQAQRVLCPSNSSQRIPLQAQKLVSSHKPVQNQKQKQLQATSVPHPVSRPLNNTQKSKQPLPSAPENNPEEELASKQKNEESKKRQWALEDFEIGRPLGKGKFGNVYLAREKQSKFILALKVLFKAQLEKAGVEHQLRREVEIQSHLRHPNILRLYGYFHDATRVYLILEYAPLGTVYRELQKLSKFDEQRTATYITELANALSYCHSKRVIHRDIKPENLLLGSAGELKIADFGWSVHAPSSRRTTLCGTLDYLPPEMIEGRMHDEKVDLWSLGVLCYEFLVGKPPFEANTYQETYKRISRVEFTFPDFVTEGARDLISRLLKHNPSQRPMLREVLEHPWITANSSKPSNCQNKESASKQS

Ret = target: T6, Ret (Homo sapiens, UniProt P07949); assay: AlphaScreen kinase assay, Ret; conditions: read-out: IC50, activity toward kinase Ret
T6 construct: P1378.pET-SF BI-PTP RET H661-R1012 HIS; made in house
T6 sequence (P07949 with tags, fused parts or gaps): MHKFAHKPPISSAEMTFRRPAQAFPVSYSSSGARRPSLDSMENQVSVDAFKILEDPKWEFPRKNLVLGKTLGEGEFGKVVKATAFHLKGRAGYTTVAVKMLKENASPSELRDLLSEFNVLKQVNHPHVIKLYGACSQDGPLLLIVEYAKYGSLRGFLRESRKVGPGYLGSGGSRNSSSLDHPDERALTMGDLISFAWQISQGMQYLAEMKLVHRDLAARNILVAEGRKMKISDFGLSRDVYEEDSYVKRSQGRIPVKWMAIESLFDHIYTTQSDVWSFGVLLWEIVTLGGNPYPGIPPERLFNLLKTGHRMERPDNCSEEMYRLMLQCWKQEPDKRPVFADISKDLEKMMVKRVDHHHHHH

Kdr = target: T7, Kdr (Homo sapiens, UniProt P35968); assay: Z'-Lyte FRET kinase assay (Invitrogen), Kdr; conditions: read-out: IC50, activity toward kinase Kdr
T7 construct: purchased Invitrogen (assay run by Invitrogen)
Source text: For example, direct radiometric, indirect FRET or AlphaScreen assays may be used to assess the level of phosphorylation of a substrate in the presence of test compounds in order to determine the inhibitory affect of the compound on the kinase. […] For these assays, compounds of the invention were screened by Invitrogen using Z′-Lyte™ kinase assay.
Briefly, the Invitrogen kinase assay involves use of a specific peptide substrate optimized for each kinase, containing a fluorophore at each end that make up the FRET pair. The peptide sensitivity to proteolytic cleavage depends on phosphorylation of the peptide. Non-phosphorylated peptide is cleaved by a protease while peptide phosphorylated by the kinase is not cleaved. Cleavage of the peptide disrupts the FRET between the donor (coumarin) and acceptor (fluorescein) fluorophores, resulting in an increase in the ratio of donor emission to acceptor emission. The emission ratio of coumarin to fluorescein is used to assess the reaction progress. […] Thus, the assay involves a kinase reaction in the presence of varying concentrations of a given compound, a development reaction with site specific protease, and detection of the fluorescent emission ratio of coumarin and fluorscein. […] Reaction conditions for each kinase are determined to provide optimal reaction times, incubation temperature, kinase and ATP concentrations. Test samples are made up in 1× kinase buffer (50 mM HEPES pH 7.5, 50 mM MgCl2, 5 mM EGTA, 0.05% BRIJ-35) and compound at desired concentration prepared in DMSO such that the final DMSO is 1%. […] All kinase except for MAP2K1 were at 10 μM ATP in the kinase reaction, while MAP2K1 was at 100 μM. Samples are mixed and the kinase reaction is incubated 1 hour at room temperature, after which 5 μl of development solution is added and mixed. After incubation for another 1 hour at room temperature, 5 μl of stop reagent is added to each sample and mixed. The fluorescence signals are measured to determine the emission ratio.

B-Raf V600E = target: T8, B-Raf V600E (Homo sapiens, UniProt P15056, V600E); assay: AlphaScreen kinase assay, B-Raf V600E; conditions: read-out: IC50, activity toward kinase B-Raf V600E
T8 construct: P4254. pFastBacBD-CDC37 BRAF D437-K722-X, V600E; His6 with pFastBac HT leader (TEV site) (N); made in house; host or cells: Sf9 (baculovirus; chaperone CDC37 co-expressed)
T8 sequence (P15056 with tags, fused parts or gaps V600E): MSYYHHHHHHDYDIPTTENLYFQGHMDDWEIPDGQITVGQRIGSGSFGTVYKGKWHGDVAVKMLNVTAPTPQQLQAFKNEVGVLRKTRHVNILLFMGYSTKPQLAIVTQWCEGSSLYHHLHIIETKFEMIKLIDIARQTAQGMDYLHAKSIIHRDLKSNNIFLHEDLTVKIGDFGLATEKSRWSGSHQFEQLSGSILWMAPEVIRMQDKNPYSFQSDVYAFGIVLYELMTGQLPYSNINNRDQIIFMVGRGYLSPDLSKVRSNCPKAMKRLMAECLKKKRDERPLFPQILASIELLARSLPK

B-Raf = target: T9, B-Raf (Homo sapiens, UniProt P15056); assay: AlphaScreen kinase assay, B-Raf; conditions: read-out: IC50, activity toward kinase B-Raf
T9 construct: purchased Upstate Biotechnology
T9 sequence (P15056 whole entry): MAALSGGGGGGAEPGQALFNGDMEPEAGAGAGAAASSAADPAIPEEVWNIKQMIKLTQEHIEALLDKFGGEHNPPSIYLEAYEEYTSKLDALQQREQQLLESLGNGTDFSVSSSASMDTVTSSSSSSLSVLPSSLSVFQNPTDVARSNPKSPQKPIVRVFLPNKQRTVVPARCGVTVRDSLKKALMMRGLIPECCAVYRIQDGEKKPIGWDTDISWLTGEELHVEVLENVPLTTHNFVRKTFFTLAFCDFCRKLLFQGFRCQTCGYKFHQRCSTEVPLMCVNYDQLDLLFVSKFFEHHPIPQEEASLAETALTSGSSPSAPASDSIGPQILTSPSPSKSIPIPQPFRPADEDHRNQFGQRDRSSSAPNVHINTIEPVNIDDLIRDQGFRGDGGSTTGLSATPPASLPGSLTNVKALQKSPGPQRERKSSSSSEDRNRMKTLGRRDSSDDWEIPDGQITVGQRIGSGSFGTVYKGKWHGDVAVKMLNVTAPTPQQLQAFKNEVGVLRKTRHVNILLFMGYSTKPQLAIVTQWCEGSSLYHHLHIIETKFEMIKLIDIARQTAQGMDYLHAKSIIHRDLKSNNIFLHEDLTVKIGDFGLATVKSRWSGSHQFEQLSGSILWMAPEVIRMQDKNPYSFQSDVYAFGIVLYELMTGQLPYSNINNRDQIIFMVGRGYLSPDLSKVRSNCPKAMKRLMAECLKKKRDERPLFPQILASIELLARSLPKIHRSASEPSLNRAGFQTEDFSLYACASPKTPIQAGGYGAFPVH

Fms = target: T10, Fms (Homo sapiens, UniProt P07333); assay: AlphaScreen kinase assay, Fms; conditions: read-out: IC50, activity toward kinase Fms
T10 construct: purchased Upstate Biotechnology

c-Raf-1 = target: T11, c-Raf-1 (Homo sapiens, UniProt P04049); assay: AlphaScreen kinase assay, c-Raf-1; conditions: read-out: IC50, activity toward kinase c-Raf-1
T11 construct: purchased Upstate Biotechnology
T11 sequence (P04049 whole entry): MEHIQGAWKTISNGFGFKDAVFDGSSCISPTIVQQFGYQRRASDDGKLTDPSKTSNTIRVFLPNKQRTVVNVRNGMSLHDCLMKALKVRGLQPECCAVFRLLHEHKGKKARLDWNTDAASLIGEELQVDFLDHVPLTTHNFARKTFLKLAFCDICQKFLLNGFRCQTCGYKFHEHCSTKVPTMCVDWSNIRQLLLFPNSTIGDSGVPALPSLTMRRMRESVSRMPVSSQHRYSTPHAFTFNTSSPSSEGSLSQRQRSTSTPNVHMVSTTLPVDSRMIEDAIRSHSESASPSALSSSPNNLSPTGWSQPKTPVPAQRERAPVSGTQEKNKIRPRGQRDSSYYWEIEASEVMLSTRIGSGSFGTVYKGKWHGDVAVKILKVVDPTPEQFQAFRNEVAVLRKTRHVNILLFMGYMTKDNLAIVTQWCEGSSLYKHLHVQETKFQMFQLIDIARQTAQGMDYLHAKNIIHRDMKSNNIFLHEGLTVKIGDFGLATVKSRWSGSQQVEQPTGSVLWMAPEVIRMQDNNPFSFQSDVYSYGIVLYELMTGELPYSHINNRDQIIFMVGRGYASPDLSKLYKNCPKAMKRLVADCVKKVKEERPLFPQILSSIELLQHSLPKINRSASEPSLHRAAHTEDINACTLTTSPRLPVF

Jnk1 = target: T12, Jnk1 (Homo sapiens, UniProt P45983); assay: AlphaScreen kinase assay, Jnk1; conditions: read-out: IC50, activity toward kinase Jnk1
T12 construct: purchased Upstate Biotechnology
T12 sequence (P45983 whole entry): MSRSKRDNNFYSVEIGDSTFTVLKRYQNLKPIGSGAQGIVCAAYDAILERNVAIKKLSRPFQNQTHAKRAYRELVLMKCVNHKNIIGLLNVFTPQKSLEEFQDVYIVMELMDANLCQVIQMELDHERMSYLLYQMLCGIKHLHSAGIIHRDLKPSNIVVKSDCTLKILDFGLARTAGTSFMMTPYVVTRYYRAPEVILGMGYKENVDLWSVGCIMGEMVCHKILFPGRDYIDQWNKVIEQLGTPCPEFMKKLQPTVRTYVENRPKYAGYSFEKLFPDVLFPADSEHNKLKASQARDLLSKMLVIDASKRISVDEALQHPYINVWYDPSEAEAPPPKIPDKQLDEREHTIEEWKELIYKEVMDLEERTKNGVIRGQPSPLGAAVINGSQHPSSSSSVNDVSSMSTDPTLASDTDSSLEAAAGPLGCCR

Jnk3 = target: T13, Jnk3 (Homo sapiens, UniProt P53779); assay: AlphaScreen kinase assay, Jnk3; conditions: read-out: IC50, activity toward kinase Jnk3
T13 construct: purchased Upstate Biotechnology
T13 sequence (P53779 whole entry): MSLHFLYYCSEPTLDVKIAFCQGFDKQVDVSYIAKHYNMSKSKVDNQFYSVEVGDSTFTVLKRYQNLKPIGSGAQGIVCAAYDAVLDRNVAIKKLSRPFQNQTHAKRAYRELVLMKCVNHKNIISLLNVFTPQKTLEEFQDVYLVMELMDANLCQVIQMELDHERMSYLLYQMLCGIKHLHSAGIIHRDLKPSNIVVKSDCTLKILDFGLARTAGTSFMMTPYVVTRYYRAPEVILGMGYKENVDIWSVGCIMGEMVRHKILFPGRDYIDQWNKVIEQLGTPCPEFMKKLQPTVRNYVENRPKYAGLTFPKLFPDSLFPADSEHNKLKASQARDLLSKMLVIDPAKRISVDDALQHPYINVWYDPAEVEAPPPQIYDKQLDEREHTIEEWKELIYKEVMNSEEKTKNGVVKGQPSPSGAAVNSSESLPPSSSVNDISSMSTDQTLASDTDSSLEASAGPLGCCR

Src = target: T14, Src (Homo sapiens, UniProt P12931); assay: AlphaScreen kinase assay, Src; conditions: read-out: IC50, activity toward kinase Src
T14 construct: P1144. pET-N6 BI-PTP SRC V86-L536-X; made in house
T14 sequence (P12931 with tags, fused parts or gaps): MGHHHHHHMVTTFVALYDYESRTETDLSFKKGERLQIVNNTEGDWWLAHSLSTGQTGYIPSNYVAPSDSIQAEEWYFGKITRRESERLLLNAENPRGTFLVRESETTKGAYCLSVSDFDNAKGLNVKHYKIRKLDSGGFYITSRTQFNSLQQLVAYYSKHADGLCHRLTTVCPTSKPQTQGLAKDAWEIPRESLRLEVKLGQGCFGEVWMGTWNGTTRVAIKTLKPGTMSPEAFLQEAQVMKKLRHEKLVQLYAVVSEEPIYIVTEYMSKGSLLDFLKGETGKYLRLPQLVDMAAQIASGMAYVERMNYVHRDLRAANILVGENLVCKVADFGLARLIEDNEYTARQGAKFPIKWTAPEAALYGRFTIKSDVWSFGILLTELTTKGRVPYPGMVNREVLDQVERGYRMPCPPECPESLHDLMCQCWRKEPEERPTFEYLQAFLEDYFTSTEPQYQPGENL

Flt1 = target: T15, Flt1 (Homo sapiens, UniProt P17948); assay: AlphaScreen kinase assay, Flt1; conditions: read-out: IC50, activity toward kinase Flt1
T15 construct: P1826.pETN6 BI-PTP FLT1 M799-D1165-X WT; His6 (N); made in house; host or cells: E. coli (PTP1B co-expressed)
T15 sequence (P17948 with tags, fused parts or gaps): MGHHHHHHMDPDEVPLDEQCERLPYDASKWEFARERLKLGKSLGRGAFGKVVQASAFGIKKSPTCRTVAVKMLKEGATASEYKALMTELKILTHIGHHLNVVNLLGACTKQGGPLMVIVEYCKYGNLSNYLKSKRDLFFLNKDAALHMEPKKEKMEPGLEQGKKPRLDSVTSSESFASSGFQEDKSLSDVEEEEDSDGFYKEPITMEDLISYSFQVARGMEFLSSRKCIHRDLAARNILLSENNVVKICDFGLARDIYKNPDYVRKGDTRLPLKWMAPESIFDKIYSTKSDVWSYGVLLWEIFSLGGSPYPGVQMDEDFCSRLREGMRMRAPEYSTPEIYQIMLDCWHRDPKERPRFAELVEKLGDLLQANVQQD

Measured: IC50

T1 sequence (P11362 458-765 C488A/C584S): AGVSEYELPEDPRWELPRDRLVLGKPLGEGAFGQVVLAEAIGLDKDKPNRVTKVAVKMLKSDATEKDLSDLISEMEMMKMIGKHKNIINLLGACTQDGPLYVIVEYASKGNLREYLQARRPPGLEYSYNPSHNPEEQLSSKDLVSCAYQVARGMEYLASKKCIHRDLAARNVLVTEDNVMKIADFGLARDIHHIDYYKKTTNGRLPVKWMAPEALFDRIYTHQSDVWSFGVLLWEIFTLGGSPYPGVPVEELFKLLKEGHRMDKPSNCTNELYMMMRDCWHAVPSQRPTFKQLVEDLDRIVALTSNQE

Cc1ccccc1C(=O)c1c[nH]c2ncc(Br)cc12 [Compound P-0217]
≤ 10 µM: FGFR1 | Kit | Btk

O=Cc1ccsc1-c1ccnc2[nH]ccc12 [Compound P-0276]
≤ 10 µM: Fak | Stk6

CC(=O)Nc1cccc(-c2ccnc3[nH]cc(C(=O)c4cc(F)ccc4F)c23)c1 [Compound P-0280]
≤ 10 µM: Ret | Btk

Cc1ccc(F)cc1C(=O)c1c[nH]c2ncc(-c3ccc(Cl)cc3)cc12 [Compound P-0304]
≤ 10 µM: FGFR1 | Kit | Ret | Btk

CC(=O)Nc1cccc(-c2ccnc3[nH]cc(C(=O)c4ccccc4C)c23)c1 [Compound P-0314]
≤ 10 µM: Ret | Btk

O=C(c1ccc(Cl)cc1)c1c[nH]c2ncc(-c3ccsc3)cc12 [Compound P-0321]
≤ 10 µM: FGFR1 | Kit | Kdr | Ret | Btk

COc1ccc(F)c(C(=O)c2c[nH]c3ncc(-c4ccccc4)cc23)c1 [Compound P-0351]
≤ 10 µM: FGFR1 | B-Raf V600E | B-Raf | Ret | Fms | Btk

O=C(c1c(F)ccc(NCc2ccccc2)c1F)c1c[nH]c2ncc(-c3cccnc3)cc12 [Compound P-0807, (3-Benzylamino-2,6-difluoro-phenyl)-(5-pyridin-3-yl-1H-pyrrolo[2,3-b]pyridin-3-yl)-methanone]
not listed: Kit | Fak | Stk6 | Kdr | Flt1
≤ 10 µM: all other assays above

O=C(c1c(F)ccc(NS(=O)(=O)c2cccs2)c1F)c1c[nH]c2ncc(Cl)cc12 [Compound P-1267, Thiophene-2-sulfonic acid [3-(5-chloro-1H-pyrrolo[2,3-b]pyridine-3-carbonyl)-2,4-difluoro-phenyl]-amide]
≤ 10 µM: Fak | FGFR1 | Kit | B-Raf V600E | B-Raf | Src | Fms | Btk

COc1cccc(C(=O)c2c[nH]c3ncc(-c4cccnc4)cc23)c1F [Compound P-1343, (2-Fluoro-3-methoxy-phenyl)-(5-pyridin-3-yl-1H-pyrrolo[2,3-b]pyridin-3-yl)-methanone]
≤ 10 µM: FGFR1 | Jnk1 | Kit | B-Raf V600E | B-Raf | Src | Fms | Btk

NC(=O)c1ccc(-c2cnc3[nH]cc(Cc4ccccc4F)c3c2)cc1 [Compound P-1348]
≤ 10 µM: Fak | FGFR1 | Jnk1 | Jnk3 | Kit | B-Raf V600E | B-Raf | Src

NC(=O)c1cccc(-c2cnc3[nH]cc(C(=O)c4ccccc4O)c3c2)c1 [Compound P-1384]
not listed: Btk | Stk6 | Ret | Kdr | c-Raf-1 | Flt1
≤ 10 µM: all other assays above

COc1ccc(F)c(C(=O)c2c[nH]c3ncc(-c4ccncc4)cc23)c1F [Compound P-1389, (2,6-Difluoro-3-methoxy-phenyl)-(5-pyridin-4-yl-1H-pyrrolo[2,3-b]pyridin-3-yl)-methanone]
≤ 10 µM: Fak | FGFR1 | c-Raf-1 | Kit | B-Raf V600E | B-Raf | Fms | Btk

COc1cc(OC)cc(C(=O)c2c[nH]c3ncc(-c4cccc(NC(C)=O)c4)cc23)c1 [Compound P-1420, N-{3-[3-(3,5-Dimethoxy-benzoyl)-1H-pyrrolo[2,3-b]pyridin-5-yl]-phenyl}-acetamide]
≤ 10 µM: FGFR1 | Flt1 | Kit | B-Raf V600E | B-Raf | Fms | Btk

O=C(c1c(Cl)cccc1Cl)c1c[nH]c2ncc(-c3cccnc3)cc12 [Compound P-1479]
≤ 10 µM: Fak | FGFR1 | Kit | B-Raf V600E | B-Raf | Src | Fms | Btk

Cc1cccc(C)c1C(=O)c1c[nH]c2ncc(-c3cccnc3)cc12 [Compound P-1480]
≤ 10 µM: Fak | FGFR1 | Kit | B-Raf V600E | B-Raf | Src | Fms | Btk
